Measurements reported in ChEMBL document CHEMBL1201862, “PubChem BioAssay data set” (2004).
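These data come from cells grown in 96-well plates and exposed to compound for 48 hours at five concentrations. Abbreviation: GI50, concentration required for 50% inhibition of growth.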 Active and inactive are the calls of the source. Cut-off read from the data, not from the text of the source: active = GI50 up to about 1.1 µM and inactive = higher.

Assays:
Assay in all cases: NCI tumour cell line growth inhibition, 48 h
[1] = test system: 786-0
[2] = test system: A498
[3] = test system: A549
[4] = test system: ACHN
[5] = test system: BT-549
[6] = test system: CAKI-1
[7] = test system: CCRF-CEM
[8] = test system: COLO 205
[9] = test system: DU-145
[10] = test system: EKVX
[11] = test system: HCC 2998
[12] = test system: HCT-116
[13] = test system: HCT-15
[14] = test system: HL-60
[15] = test system: HOP-62
[16] = test system: HOP-92
[17] = test system: HT-29
[18] = test system: Hs-578T
[19] = test system: IGROV-1
[20] = test system: KM12
[21] = test system: LOX IMVI
[22] = test system: M14
[23] = test system: MCF7
[24] = test system: MDA-MB-231
[25] = test system: MDA-MB-435
[26] = test system: MDA-N
[27] = test system: MOLT-4
[28] = test system: Malme-3M
[29] = test system: NCI-H226
[30] = test system: NCI-H23
[31] = test system: NCI-H460
[32] = test system: NCI-H522
[33] = test system: NCI/ADR-RES
[34] = test system: OVCAR-3
[35] = test system: OVCAR-4
[36] = test system: OVCAR-5
[37] = test system: OVCAR-8
[38] = test system: PC-3
[39] = test system: RPMI-8226
[40] = test system: RXF 393
[41] = test system: SF-268
[42] = test system: SF-295
[43] = test system: SF-539
[44] = test system: SK-MEL-28
[45] = test system: SK-MEL-2
[46] = test system: SK-MEL-5
[47] = test system: SK-OV-3
[48] = test system: SN12C
[49] = test system: SNB-19
[50] = test system: SR
[51] = test system: SW-620
[52] = test system: T47D
[53] = test system: TK-10
[54] = test system: U-251
[55] = test system: UACC-257
[56] = test system: UACC-62
[57] = test system: UO-31

With `CCCCCCCCCCCCCCCCOCC(O)CO` (configuration not stated) the GI50 [1] was 18.4 µM (inactive), the GI50 [2] was 19.5 µM (inactive) and the GI50 [3] was 20.1 µM (inactive). For the same molecule, the GI50 [4] was 18.8 µM (inactive), the GI50 [5] was 22.2 µM (inactive) and the GI50 [6] was 17.6 µM (inactive). The GI50 [7] was 11.1 µM (inactive), the GI50 [8] was 22.1 µM (inactive) and the GI50 [9] was 18.9 µM (inactive). The GI50 [10] was 18.2 µM (inactive), the GI50 [11] was 17.3 µM (inactive) and the GI50 [12] was 19.4 µM (inactive). The GI50 [13] was 18.7 µM, the GI50 [14] was 7.18 µM (inactive) and the GI50 [15] was 19.6 µM (inactive). The GI50 [16] was 21 µM (inactive), the GI50 [17] was 17.3 µM (inactive) and the GI50 [18] was 18.4 µM (inactive). For the same molecule, the GI50 [19] was 16.3 µM (inactive), the GI50 [20] was 17.4 µM (inactive) and the GI50 [21] was 17.8 µM (inactive). For the same molecule, the GI50 [22] was 22.8 µM (inactive), the GI50 [23] was 22.2 µM (inactive) and the GI50 [24] was 18.5 µM (inactive). For the same molecule, the GI50 [25] was 17.4 µM (inactive), the GI50 [26] was 25.7 µM (inactive) and the GI50 [27] was 13.3 µM (inactive). The GI50 [28] was 19.2 µM (inactive), the GI50 [29] was 18.7 µM (inactive) and the GI50 [30] was 17.9 µM (inactive). For the same molecule, the GI50 [31] was 19.9 µM (inactive), the GI50 [32] was 16.8 µM (inactive) and the GI50 [33] was 16.7 µM (inactive). For the same molecule, the GI50 [34] was 20.7 µM (inactive), the GI50 [35] was 21 µM (inactive) and the GI50 [36] was 19.8 µM (inactive). The GI50 [37] was 17.9 µM (inactive), the GI50 [38] was 16.5 µM (inactive) and the GI50 [39] was 14.8 µM (inactive). The GI50 [40] was 16.2 µM (inactive), the GI50 [41] was 17.1 µM (inactive) and the GI50 [42] was 16.4 µM (inactive). The GI50 [43] was 16.3 µM (inactive), the GI50 [44] was 18.6 µM (inactive) and the GI50 [45] was 20.6 µM (inactive). The GI50 [46] was 27.5 µM (inactive), the GI50 [47] was 16.6 µM (inactive) and the GI50 [48] was 19.2 µM (inactive). The GI50 [49] was 24 µM (inactive), the GI50 [50] was 10.3 µM (inactive) and the GI50 [51] was 20.3 µM (inactive). For the same molecule, the GI50 [52] was 23.4 µM (inactive), the GI50 [53] was 15.2 µM (inactive) and the GI50 [54] was 19 µM (inactive). For the same molecule, the GI50 [55] was 19.1 µM (inactive), the GI50 [56] was 17 µM (inactive) and the GI50 [57] was 17.1 µM (inactive).
